Data from patent US20240409585A1, “MACROCYCLIC IMMUNOMODULATORS” (priority 2021, published 2024).
Bridge positions count the residues as written; N and C are the ends. Square brackets hold non-standard residues; d marks the D form. Peptide text beside a SMILES is read from it. * marks the point of attachment. ξ: configuration not given here. Phe(4-COOH) = N[C@@H](Cc1ccc(C(=O)O)cc1)C(=O)O; Bip = N[C@@H](Cc1ccc(-c2ccccc2)cc1)C(=O)O; Phe(3-OMe) = COc1cccc(C[C@H](N)C(=O)O)c1; Phe(4-NH2) = Nc1ccc(C[C@H](N)C(=O)O)cc1; Phe(3-Me) = Cc1cccc(C[C@H](N)C(=O)O)c1; 2Pal = N[C@@H](Cc1ccccn1)C(=O)O; 4Pal = N[C@@H](Cc1ccncc1)C(=O)O; Cha = N[C@@H](CC1CCCCC1)C(=O)O; Cit = NC(=O)NCCC[C@H](N)C(=O)O; Thr(3ξ) = CC(O)[C@H](N)C(=O)O; Carboxymethyl = O=C(O)C*; NMeA = CN[C@@H](C)C(=O)O; Nle = CCCC[C@H](N)C(=O)O; Dab = NCC[C@H](N)C(=O)O

The compounds below were run against T1, PE-labeled human PD-L1-Ig binding to Jurkat cell line over-expressing human PD-1 (Jurkat-PD-1) (Homo sapiens, UniProt Q15116) (assay: Jurkat-PD-1 Cell Binding High-Content Screening Assay (CBA): Method 1). Details: Jurkat-hPD-1 cells, PE-labeled PD-L1-Ig 20 nM final; read-out: Jurkat HPDL1 PD1 IC50 (uM) (Method 1).
T1 construct: expressed in transfected cells; host or cells: Jurkat
T1 sequence (Q15116 25-288): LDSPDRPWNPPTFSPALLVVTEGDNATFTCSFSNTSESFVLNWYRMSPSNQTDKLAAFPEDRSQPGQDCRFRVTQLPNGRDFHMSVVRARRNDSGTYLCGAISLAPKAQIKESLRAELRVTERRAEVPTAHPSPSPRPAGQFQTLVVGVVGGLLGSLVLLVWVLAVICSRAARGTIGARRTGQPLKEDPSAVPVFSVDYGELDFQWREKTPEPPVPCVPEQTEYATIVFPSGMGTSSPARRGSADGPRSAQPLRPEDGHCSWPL

Going from CCNC(=O)[C@H](CCN)NC(=O)[C@@H]1CSCC(=O)N[C@@H](Cc2ccncc2)C(=O)N[C@@H](Cc2ccc(OCC(=O)O)cc2)C(=O)N[C@@H](CC(=O)O)C(=O)N[C@@H](Cc2cccc(C)c2)C(=O)N[C@@H](Cc2ccc(OCC(=O)O)cc2)C(=O)N[C@@H](Cc2ccc(-c3ccccc3)cc2)C(=O)N[C@@H](Cc2ccc(OCC(=O)O)cc2)C(=O)N(C)[C@@H](C)C(=O)N[C@H](CC(C)C)C(=O)N[C@@H](CCN)C(=O)N[C@@H](CC2CCCCC2)C(=O)N[C@@H](C(C)C)C(=O)N[C@@H]([C@@H](C)O)C(=O)N1 [Compound 1858] ({CH2CO}-[4Pal]Y(Carboxymethyl)D[Phe(3-Me)]Y(Carboxymethyl)[Bip]Y(Carboxymethyl)[NMeA][dL][Dab][Cha]VTC[Dab]-NHEt; thioether N-14) to CC(=O)NCCCC[C@@H]1NC(=O)[C@H](Cc2ccc(-c3ccccc3)cc2)NC(=O)[C@H](Cc2ccc(O)cc2)NC(=O)[C@H](Cc2cccc(C)c2)NC(=O)[C@H](CC(=O)O)NC(=O)[C@H](Cc2ccc(OCC(=O)O)cc2)NC(=O)[C@H](C(C)O)NC(=O)CSC[C@@H](C(N)=O)NC(=O)[C@H](C(C)O)NC(=O)[C@H](C(C)C)NC(=O)[C@H](CC2CCCCC2)NC(=O)[C@H](CCN)NC(=O)[C@@H](CC(C)C)NC(=O)[C@H](C)N(C)C1=O (stereo partly drawn) [Compound 2255] ({CH2CO}-[Thr(3ξ)]Y(Carboxymethyl)D[Phe(3-Me)]Y[Bip]K(Ac)[NMeA][dL][Dab][Cha]V[Thr(3ξ)]C-NH2; thioether N-14), the IC50 rises from 0.01 µM to 0.06 µM (6-fold). The first is the more potent here.

Going from CC(C)C[C@@H]1NC(=O)[C@H](CCCCN)NC(=O)[C@@H](CC(C)C)NC(=O)[C@H](C)N(C)C(=O)[C@H](Cc2cnc[nH]2)NC(=O)[C@H](Cc2ccc(-c3ccccc3)cc2)NC(=O)[C@H](C(C)C)NC(=O)[C@H](Cc2c[nH]c3ccccc23)NC(=O)[C@H](CC(=O)O)NC(=O)[C@H](Cc2ccc(O)cc2)NC(=O)[C@H](CC(N)=O)NC(=O)CSC[C@@H](C(=O)N[C@@H](C)C(N)=O)NC(=O)[C@H]([C@@H](C)O)NC(=O)[C@H](C(C)C)NC1=O [Compound 1481] ({CH2CO}-NYDWV[Bip]H[NMeA][dL]KLVTCA-NH2; thioether N-14) to CC(C)C[C@@H]1NC(=O)[C@H](CCC(=O)O)NC(=O)[C@@H](CC(C)C)NC(=O)[C@H](C)N(C)C(=O)[C@H](CCCCN)NC(=O)[C@H](Cc2ccc(-c3ccccc3)cc2)NC(=O)[C@H](C(C)C)NC(=O)[C@H](Cc2c[nH]c3ccccc23)NC(=O)[C@H](CC(=O)O)NC(=O)[C@H](Cc2ccc(O)cc2)NC(=O)[C@H](Cc2ccncc2)NC(=O)CSC[C@@H](C(=O)N[C@@H](C)C(N)=O)NC(=O)[C@H](C(C)O)NC(=O)[C@H](C(C)C)NC1=O (stereo partly drawn) [Compound 2058] ({CH2CO}-[4Pal]YDWV[Bip]K[NMeA][dL]ELV[Thr(3ξ)]CA-NH2; thioether N-14), the IC50 falls from 0.12 µM to 0.04 µM (3-fold). The second is the more potent here.

CC(C)C[C@@H]1NC(=O)[C@H](Cc2c[nH]c3ccccc23)NC(=O)[C@H](CC(=O)O)NC(=O)[C@H](Cc2ccc(OCC(=O)O)cc2)NC(=O)[C@H](Cc2ccccc2)NC(=O)CSC[C@@H](C(=O)N[C@@H](CC(N)=O)C(N)=O)NC(=O)[C@H](CO)NC(=O)[C@H](C(C)C)NC(=O)[C@H](CC(C)C)NC(=O)[C@H](CCN)NC(=O)[C@@H](CC(C)C)NC(=O)[C@H](C)N(C)C(=O)[C@H](Cc2cnc[nH]2)NC(=O)[C@H](Cc2ccc(-c3ccccc3)cc2)NC1=O [Compound 2096] ({CH2CO}-FY(Carboxymethyl)DWL[Bip]H[NMeA][dL][Dab]LVSCN-NH2; thioether N-14) and CC(C)C[C@@H]1NC(=O)[C@H](Cc2c[nH]c3ccccc23)NC(=O)[C@H](CC(=O)O)NC(=O)[C@H](Cc2ccc(O)cc2)NC(=O)[C@H](Cc2ccccc2)NC(=O)CSC[C@@H](C(=O)N[C@@H](C)C(N)=O)NC(=O)[C@H](CO)NC(=O)[C@H](C(C)C)NC(=O)[C@H](CC(C)C)NC(=O)[C@H](CCCCN)NC(=O)[C@@H](C)NC(=O)[C@H](C)N(C)C(=O)[C@H](CCC(=O)O)NC(=O)[C@H](Cc2ccc(-c3ccccc3)cc2)NC1=O [Compound 1767] ({CH2CO}-FYDWL[Bip]E[NMeA][dA]KLVSCA-NH2; thioether N-14) are the same in IC50: 0.04 µM for the first, 0.04 µM for the second.

Going from CCCC[C@@H]1NC(=O)[C@H](CCCNC(=N)N)NC(=O)[C@@H](CC(C)C)NC(=O)[C@H](C)N(C)C(=O)[C@H]([C@@H](C)CC)NC(=O)[C@H](Cc2ccc(-c3ccccc3)cc2)NC(=O)[C@H](C(C)C)NC(=O)[C@H](Cc2c[nH]c3ccccc23)NC(=O)[C@H](CC(=O)O)NC(=O)[C@H](Cc2ccc(O)cc2)NC(=O)[C@H](Cc2ccccc2)NC(=O)CSC[C@@H](C(=O)N[C@@H](C)C(N)=O)NC(=O)[C@H]([C@@H](C)O)NC(=O)[C@H](C(C)C)NC1=O [Compound 1499] ({CH2CO}-FYDWV[Bip]I[NMeA][dL]R[Nle]VTCA-NH2; thioether N-14) to CC(C)C[C@@H]1NC(=O)[C@H](CCCNC(=N)N)NC(=O)[C@@H](CC(C)C)NC(=O)[C@H](C)N(C)C(=O)[C@H](CCCNC(=N)N)NC(=O)[C@H](Cc2ccc(-c3ccccc3)cc2)NC(=O)[C@H](C(C)C)NC(=O)[C@H](Cc2c[nH]c3ccccc23)NC(=O)[C@H](CC(=O)O)NC(=O)[C@H](Cc2ccc(N)cc2)NC(=O)[C@H](Cc2ccccc2)NC(=O)CSC[C@@H](C(=O)N[C@@H](C)C(N)=O)NC(=O)[C@H]([C@@H](C)O)NC(=O)[C@H](C(C)C)NC1=O [Compound 1082] ({CH2CO}-F[Phe(4-NH2)]DWV[Bip]R[NMeA][dL]RLVTCA-NH2; thioether N-14), the IC50 falls from 0.14 µM to 0.04 µM (3.5-fold). The second is the more potent here.

Compared with CC(C)C[C@@H]1NC(=O)[C@H](CCN)NC(=O)[C@@H](CC(C)C)NC(=O)[C@H](C)N(C)C(=O)[C@H](CCCNC(N)=O)NC(=O)[C@H](Cc2ccc(-c3ccccc3)cc2)NC(=O)[C@H](C(C)C)NC(=O)[C@H](Cc2c[nH]c3ccccc23)NC(=O)[C@H](CC(=O)O)NC(=O)[C@H](Cc2ccc(C(=O)O)cc2)NC(=O)[C@H](Cc2ccccn2)NC(=O)CSC[C@@H](C(=O)N[C@@H](C)C(N)=O)NC(=O)[C@H]([C@@H](C)O)NC(=O)[C@H](C(C)C)NC1=O [Compound 1330] ({CH2CO}-[2Pal][Phe(4-COOH)]DWV[Bip][Cit][NMeA][dL][Dab]LVTCA-NH2; thioether N-14), COc1cccc(C[C@@H]2NC(=O)[C@H](CC(=O)O)NC(=O)[C@H](Cc3ccc(O)cc3)NC(=O)[C@H](CC(N)=O)NC(=O)CSC[C@@H](C(=O)N[C@@H](C)C(N)=O)NC(=O)[C@H]([C@@H](C)O)NC(=O)[C@H](C(C)C)NC(=O)[C@H](CC(C)C)NC(=O)[C@H](CCN)NC(=O)[C@@H](CC(C)C)NC(=O)[C@H](C)N(C)C(=O)[C@H](C(C)C)NC(=O)[C@H](Cc3ccc(-c4ccccc4)cc3)NC(=O)[C@H](C(C)C)NC2=O)c1 [Compound 1277] ({CH2CO}-NYD[Phe(3-OMe)]V[Bip]V[NMeA][dL][Dab]LVTCA-NH2; thioether N-14) is 2-fold lower in IC50: 0.04 µM for the first, 0.02 µM for the second. The second is the more potent here.

COc1cccc(C[C@@H]2NC(=O)[C@H](CC(=O)O)NC(=O)[C@H](Cc3ccc(O)cc3)NC(=O)[C@H](Cc3ccccc3)NC(=O)CSC[C@@H](C(=O)N[C@@H](C)C(N)=O)NC(=O)[C@H](CO)NC(=O)[C@H](C(C)C)NC(=O)[C@H](CC(C)C)NC(=O)[C@H](CC(N)=O)NC(=O)[C@@H](C)NC(=O)[C@H](C)N(C)C(=O)[C@H](C(C)C)NC(=O)[C@H](Cc3ccc(-c4ccccc4)cc3)NC(=O)[C@H](CC(C)C)NC2=O)c1 [Compound 1739] ({CH2CO}-FYD[Phe(3-OMe)]L[Bip]V[NMeA][dA]NLVSCA-NH2; thioether N-14) was tested, and the IC50 was 0.02 µM.
